Converted amounts (≈) assume the structure as drawn.
Assays:
CD-1 mice [1] = test: 52 °C tail-flick assay, morphine anti-nociception after Hsp90 inhibitor treatment; format: in vivo; details: for naloxone reversibility of inhibitor-enhanced morphine pain relief: 2 mg/kg naloxone i.p. 10 min; for A50 (morphine anti-nociceptive potency), tail flick, systemic inhibitor: 1 mg/kg inhibitor i.v., then 1–5.6 mg/kg morphine s.c., peak %MPE, 95% CI in parentheses; for effect of higher 10 mg/kg dose on morphine pain relief (tail flick): 10 mg/kg i.v. vs 1 mg/kg i.v.
Protocol: (§1) Pre-injection tail-flick baselines were determined in a 52 °C tail-flick assay with a 10-s cutoff time (method also reported in Ref.[13]). […] No animals were excluded from these studies.

CD-1 mice [2] = test: Post-surgical paw incision, mechanical allodynia (von Frey), morphine anti-nociception; format: in vivo; details: 24 h
Protocol: Mechanical thresholds were determined prior to surgery using calibrated von Frey filaments (Ugo Basile, Varese, Italy) with the up-down method and four measurements after the first response per mouse as in Ref.[27] and our previously published work (e.g. Ref.[28]). The mice were housed in a homemade apparatus with Plexiglas walls and ceiling and a wire mesh floor (3-inch wide 4-inch long 3-inch high with 0.25-inch wire mesh). The surgery was then performed by anesthesia with ~ 2% isoflurane in standard air, preparation of the left plantar hind paw with iodine and 70% ethanol, and a 5-mm incision made through the skin and fascia with a no. 11 scalpel. The muscle was elevated with curved forceps leaving the origin and insertion intact, and the muscle was split lengthwise using the scalpel. The wound was then closed with 5–0 polyglycolic acid sutures. Mice were then injected with inhibitor or Vehicle control and left to recover for 24 h. Our intrathecal (i.t.) injection protocol is reported in Refs.[13],[29]; briefly, the injection was made in awake and restrained animals with a 10 μL Hamilton syringe and 30 g needle (5–7 μL volume) between the L5-L6 vertebrae at a 45° angle, with placement validated by tail twitch. Since the injection was made through skin with no incision or other surgical intervention, repeated injection protocols were performed the same way. The next day, the mechanical threshold was again determined as described above. […] . No animals were excluded from these studies.

CD-1 mice [3] = test: Morphine anti-nociceptive tolerance and tolerance rescue (tail flick); format: in vivo; details: 3 days twice daily 10 mg/kg morphine s.c.; 1 mg/kg i.v. on day 3, 24 h; 10 mg/kg morphine s.c.; tail flick
Protocol: as §1

physchem [4] = format: physicochemical
Protocol: Distribution coefficient (LogD) was determined by the method of Wilson et al.[30]. Briefly, 5 µL volumes of test compounds diluted in DMSO were added to a mixture of equal volumes of 50 mM phosphate buffer and 1-octanol. The compounds were assayed using a 50 nM concentration in order to limit compound precipitation and to ensure that the assay values were maintained within the dynamic range of the LC–MS/MS instrumentation. Samples were vortex mixed at 800 rpm for 24 h. Subsequent to centrifugation at 14,000 rpm for 30 min, 1 µL of each layer was analyzed by LC–MS/MS. LogD was calculated using the peak areas obtained from each layer.
LC − MS/MS analysis was conducted using an Agilent (Santa Clara, CA) 6460 triple quadrupole mass spectrometer coupled with an Agilent liquid chromatography (LC) system. The LC system consists of a binary pump, degasser, column heater, and autosampler. Chromatographic separation was performed on a Waters Atlantis T3 3 µm 3.0 × 50 mm analytical column using a ballistic gradient of mobile phase consisting of 0.1% formic acid in water (A) and 0.1% formic acid in acetonitrile (B) at a flow rate of 0.75 mL/min. The mobile phase was heated to a temperature of 45 °C.

in vitro [5] = format: in vitro ADME, CD-1 mice; details: male, CD-1, mouse, microsomes
Protocol: (§2) Metabolic stability of lead compounds was assessed in vitro by the method of Di et al.[32]. Briefly, mouse liver microsomes (Corning Life Sciences, Woburn, MA) were isolated from CD-1 mice (male mice, 8 − 10 weeks of age). Assays were conducted using 0.123 mg/mL protein concentration (total protein concentration in the microsomal solution) and 1.0 μM drug concentration under incubation conditions of 37 °C. Metabolic stability was determined following 0, 5, 15, 30, and 60 min of incubation time. The samples were analyzed by reversed phase LC using a triple quadrupole mass spectrometer. Compound specific transitions of parent ion to product ion were monitored and percent remaining calculated based on peak area of 5 − 60 min time points (relative to time zero). Half-life calculations were determined using the formula t½ = − ln(2)/k, where k (min^−1) is the turnover rate constant (the slope) estimated from a log − linear regression of the percentage compound remaining versus time.
LC − MS/MS analysis was conducted using an Agilent (Santa Clara, CA) 6460 triple quadrupole mass spectrometer coupled with an Agilent liquid chromatography (LC) system. The LC system consists of a binary pump, degasser, column heater, and autosampler. […]

in vitro [6] = format: in vitro ADME; details: male, human, microsomes
Protocol: as §2
Metabolic stability of the compounds in human liver microsomes was determined by the method described above using pooled human liver microsome preparations from 20 male donors (Corning Life Sciences, Woburn, MA). Assays were conducted as described above and the in vitro half-life of the compounds was calculated. […]

human mu opioid receptor = target: T1, human mu opioid receptor (Homo sapiens, UniProt P35372); format: binding; details: up to a 10 μM concentration
T1 construct: membrane protein

[7] = target: T2, human delta opioid receptor (Homo sapiens, UniProt P41143); test: Competition radioligand binding vs 3H-diprenorphine, delta opioid receptor; details: up to a 10 μM concentration
T2 construct: membrane protein

[8] = target: T3, human kappa opioid receptor (Homo sapiens, UniProt P41145); test: Competition radioligand binding vs 3H-diprenorphine, kappa opioid receptor; details: up to a 10 μM concentration
T3 construct: membrane protein

CD-1 mice [9] = details: mouse, in vivo
[10] = 1 and 10 mg/kg i.v.
in vivo = details: CD-1, mouse, iv
physchem [11] = details: pH 6.8, aqueous buffer, thermodynamic from solid
[12] = 1 mg/kg i.v., 24 h, 3.2 mg/kg morphine s.c., tail flick
[13] = 24 h, then 3.2 mg/kg morphine s.c.

| Structure (SMILES) | naloxone reversibility of inhibitor-enhanced morphine pain relief (CD-1 mice [1]; [12]) | A50 (morphine anti-nociceptive potency), tail flick, systemic inhibitor (CD-1 mice [1]; 24 h) | effect of higher 10 mg/kg dose on morphine pain relief (tail flick) (CD-1 mice [1]; [13]) | rescue of established morphine tolerance, systemic inhibitor (CD-1 mice [3]) | logD at 24 h (physchem [4]) | half-life at 1 µM (in vitro [5]) [min] | half-life at 1 µM (in vitro [6]) [min] | binding to mu opioid receptor (competition vs 3H-diprenorphine) (human mu opioid receptor) | binding to delta opioid receptor (competition vs 3H-diprenorphine) [7] | binding to kappa opioid receptor (competition vs 3H-diprenorphine) [8] | effect on respiratory activity before and after morphine (CD-1 mice [9]) | other results |
| --- | --- | --- | --- | --- | --- | --- | --- | --- | --- | --- | --- | --- |
| Cc1ccc(Sc2cc(C(=O)N3Cc4ccccc4C3)ccc2O)cc1C [KUNA115] | – | – | – | – | – | – | – | – | – | – | – | effect on morphine tail flick anti-nociception, isoform-selective inhibitor i.t. (CD-1 mice [1]; 0.01 nmol i.t., 24 h, then 3.2 mg/kg morphine s.c.): significant anti-nociceptive elevation; effect of systemic Hsp90α inhibitor on morphine anti-nociception, paw incision (CD-1 mice [2]; 1 mg/kg i.v., then 3.2 mg/kg morphine s.c.): completely blocked anti-nociception |
| CCCc1cc2cc(-n3nc(C)c4c3CC(C)(C)CC4=O)cc(N3CCC(O)CC3)c2c(=O)[nH]1 [KUNB106] | fully naloxone-reversible | 1.7 (1.1–2.3) mg/kg | less benefit than 1 mg/kg | rescued established tolerance | 2.26 | 63 | 156 | did not find any binding | did not find any binding | did not find any binding | no impact on respiratory activity before or after morphine | – |
| COC(=O)c1c(O)cc(O)c(Cl)c1CCc1ccccc1Cc1ccc(F)cc1 [KUNG65] | fully naloxone-reversible | 1.9 (1.4–2.3) mg/kg | elevated morphine pain relief, it did so less than a 1 mg/kg dose | rescued established tolerance | 3.3 | 32 | 144 | no binding | no binding | no binding | no effect on respiration before or after morphine injection | effect on morphine tail flick anti-nociception 48 h after treatment (CD-1 mice [1]; 1 mg/kg i.v., 48 h, then 3.2 mg/kg morphine s.c.): no effect; effect of spinal cord Grp94 CRISPR knockdown on benefit of systemic inhibitor (CD-1 mice [1]; Grp94 CRISPR i.t., 1 mg/kg i.v. on day 9, 24 h, 3.2 mg/kg morphine s.c., tail flick): abolished the benefit; A50 (morphine anti-nociceptive potency), paw incision, systemic inhibitor (CD-1 mice [2]; 1 mg/kg inhibitor i.v., then 1–3.2 mg/kg morphine s.c., peak %MPE, 95% CI in parentheses): 0.9 (0.5–1.2) mg/kg; exposure in the spinal cord [10]: very low exposure; AUC(0-inf) (in vivo; 1 mg/kg): 0.245 µM·h; Cmax (in vivo; 1 mg/kg): 418 nM; Tmax (in vivo; 1 mg/kg): 4.98 min; half-life (in vivo; 1 mg/kg): 36 min; AUC(0-inf) (in vivo; 10 mg/kg): 0.46 µM·h; Cmax (in vivo; 10 mg/kg): 1070 nM; Tmax (in vivo; 10 mg/kg): 4.98 min; half-life (in vivo; 10 mg/kg): 38.4 min; solubility at 24 h (physchem [11]): 0.074 µM (≈ 0.0307 µg/mL) |
